Assay results from patent US10000454B2, “Antidiabetic tricyclic compounds” (Merck Sharp & Dohme Corp., priority 2014, dated 2018).

How the values were obtained:
Human GPR40 [1] = biological target: T1, Human GPR40 (Homo sapiens, UniProt O14842); experiment: FLIPR assay, agonist-induced calcium mobilization; assay type: cell-based; design: expressed in transfected cells; settings: GPR40/CHO NFAT BLA cells
Summary of the method: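 CHO NFAT-BLA cells stably expressing human GPR40 were loaded 100 min at room temperature with buffer (HMS, 0.1% BSA, 20 mM HEPES, 2.5 mM probenecid, pH 7.4) containing 8 μM fluo-4 AM. The agonist-induced calcium rise after compound addition was read as FLIPR fluorescence.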

Human GPR40 [2] = biological target: T1, Human GPR40; experiment: Inositol Phosphate Turnover (IP1) Assay; assay type: cell-based; design: expressed in transfected cells; host or cells: HEK cells (stably expressing the aequorin reporter); settings: HEK cells stably expressing human GPR40, CisBio IP-One kit
Summary of the method: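 HEK cells stably expressing human GPR40, plated 15,000 per well and incubated 16 h, then exposed to compound for 60 min at 37 degrees in stimulation buffer. IP1 measured by HTRF (IP-One) as 665/620 nm ratio, converted to IP1 concentration via a standard curve.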

T1 sequence (O14842 whole entry): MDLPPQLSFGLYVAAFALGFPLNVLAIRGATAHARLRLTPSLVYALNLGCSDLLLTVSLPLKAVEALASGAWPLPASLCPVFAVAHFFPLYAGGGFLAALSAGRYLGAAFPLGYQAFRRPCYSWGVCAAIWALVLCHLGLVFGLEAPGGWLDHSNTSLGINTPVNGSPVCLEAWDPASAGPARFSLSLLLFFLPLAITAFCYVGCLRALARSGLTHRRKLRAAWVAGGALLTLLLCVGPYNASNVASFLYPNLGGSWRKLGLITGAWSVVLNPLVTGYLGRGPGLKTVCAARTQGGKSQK

Row | Structure (SMILES) | EC50 (Human GPR40 [1]) [nM] | EC50 (Human GPR40 [2]) [nM]
1 | CC1(C)CC(=O)N(c2ccccc2C(F)(F)F)c2cc(COc3cc4c(cn3)[C@H]3[C@@H](C4)[C@@H]3C(=O)O)c(F)cc21 [Example 54, (5aR,6S,6aS)-3-((6-fluoro-4,4-dimethyl-2-oxo-1-(2-(trifluoromethyl)phenyl)-1,2,3,4-tetrahydroquinolin-7-yl)methoxy)-5,5a,6,6a-tetrahydrocyclopropa[4,5] cyclopenta[1,2-c]pyridine-6-carboxylic acid] | 44.9 | 562
2 | CC1(C)CCC(c2ccccc2C(F)(F)F)c2cc(COc3cc4c(cn3)[C@H]3[C@@H](C4)[C@@H]3C(=O)O)c(F)cc21 (stereo partly drawn) [Example 55, (5aR,6S,6aS)-3-((3-fluoro-5,5-dimethyl-8-(2-(trifluoromethyl)phenyl)-5,6,7,8-tetrahydronaphthalen-2-yl)methoxy)-5,5a,6,6a-tetrahydrocyclopropa[4,5]cyclopenta[1,2-c]pyridine-6-carboxylic acid] | 63.7 | 70.2
3 | O=C(O)[C@H]1[C@@H]2Cc3cc(OCc4ccc5c(c4)N(c4ccccc4)CCO5)ncc3[C@@H]21 [Example 61, (5aR,6S,6aS)-3-((4-phenyl-3,4-dihydro-2H-benzo[b][1,4]oxazin-6-yl)methoxy)-5,5a,6,6a-tetrahydrocyclopropa[4,5]cyclopenta[1,2-c]pyridine-6-carboxylic acid] | 40.5 | 653
4 | O=C(O)[C@H]1[C@@H]2Cc3cc(OCc4ccc5c(c4)N(c4ccccc4)CCCC5)ncc3[C@@H]21 [Example 62, (5aR,6S,6aS)-3-((1-phenyl-2,3,4,5-tetrahydro-1H-benzo[b]azepin-8-yl)methoxy)-5,5a,6,6a-tetrahydrocyclopropa[4,5]cyclopenta[1,2-c]pyridine-6-carboxylic acid] | 14.6 | 42.9
5 | O=C(O)[C@H]1[C@@H]2Cc3cc(OCc4ccc5c(c4)N(c4ccccc4)CCC5)ccc3[C@@H]21 [Example 66, (1S,1aS,6aR)-4-((1-phenyl-1,2,3,4-tetrahydroquinolin-7-yl)methoxy)-1,1a,6,6a-tetrahydrocyclopropa[a]indene-1-carboxylic acid] | 9.77 | 72.6
6 | O=C(O)[C@H]1[C@@H]2Cc3cc(OCc4ccc5c(c4)N(c4ccccn4)CCC5)ccc3[C@@H]21 [Example 67, (1S,1aS,6aR)-4-((1-(pyridin-2-yl)-1,2,3,4-tetrahydroquinolin-7-yl)methoxy)-1,1a,6,6a-tetrahydrocyclopropa[a] indene-1-carboxylic acid] | 28.9 | 169
7 | Cc1ccccc1N1CCCc2ccc(COc3ccc4c(c3)C[C@H]3[C@H](C(=O)O)[C@@H]43)cc21 [Example 68, (1S,1aS,6aR)-4-((1-(o-tolyl)-1,2,3,4-tetrahydroquinolin-7-yl)methoxy)-1,1a,6,6a-tetrahydrocyclopropa[a] indene-1-carboxylic acid] | 24.7 | 64.9
8 | Cn1cnc2c([C@H]3CC(C)(C)c4ccc(COc5cc6c(cn5)[C@H]5[C@@H](C6)[C@@H]5C(=O)O)cc43)cccc21 [Example 71] | 13.3 | 205
9 | CN1CC(C)(C)c2cc(F)c(COc3cc4c(cn3)[C@H]3[C@@H](C4)[C@@H]3C(=O)O)cc2[C@H]1c1ccccc1C(F)(F)F [Example 73, (5aR,6S,6aS)-3-(((S)-6-fluoro-2,4,4-trimethyl-1-(2-(trifluoromethyl)phenyl)-1,2,3,4-tetrahydroisoquinolin-7-yl)methoxy)-5,5a,6,6a-tetrahydrocyclopropa[4,5]cyclopenta[1,2-c]pyridine-6-carboxylic acid] | 18.6 | 21.1
10 | CC1(C)CNC(c2ccccc2C(F)(F)F)c2c1ccc(COc1cc3c(cn1)[C@H]1[C@@H](C3)[C@@H]1C(=O)O)c2F (stereo partly drawn) [Example 74, (5aR,6S,6aS)-3-((8-fluoro-4,4-dimethyl-1-(2-(trifluoromethyl)phenyl)-1,2,3,4-tetrahydroisoquinolin-7-yl)methoxy)-5,5a,6,6a-tetrahydrocyclopropa[4,5]cyclopenta[1,2-c]pyridine-6-carboxylic acid] | 6.75 | 4.99
